Measurements taken from patent US20250136619A1, “HETEROBIFUNCTIONAL COMPOUNDS AND THEIR USE IN TREATING DISEASE” (HALDA THERAPEUTICS OPCO, INC., priority 2021, published 2025).
pKd: −log10 of the molar value.

How the values were obtained:
mTOR = mTOR (Homo sapiens (Human), UniProt P42345); assay: KdELECT assay for binding affinity to mTOR
Experimental: (§1) Compounds were tested using a KdELECT assay. Kinase-tagged T7 phage strains were prepared in an E. coli host derived from the BL21 strain. E. coli were grown to log-phase and infected with T7 phage and incubated with shaking at 32° C. until lysis. The lysates were centrifuged and filtered to remove cell debris. The remaining kinases were produced in HEK-293 cells and subsequently tagged with DNA for qPCR detection. Streptavidin-coated magnetic beads were treated with biotinylated small molecule ligands for 30 minutes at room temperature to generate affinity resins for kinase assays. The liganded beads were blocked with excess biotin and washed with blocking buffer (SeaBlock (Pierce), 1% BSA, 0.05% Tween 20, 1 mM DTT) to remove unbound ligand and to reduce non-specific binding. Binding reactions were assembled by combining kinases, liganded affinity beads, and test compounds in 1×binding buffer (20% SeaBlock, 0.17×PBS, 0.05% Tween 20, 6 mM DTT). Test compounds were prepared as 111X stocks in 100% DMSO. Kd values were determined using an 11-point 3-fold compound dilution series with three DMSO control points. All compounds for Kd measurements are distributed by acoustic transfer (non-contact dispensing) in 100% DMSO. The compounds were then diluted directly into the assays such that the final concentration of DMSO was 0.9%. All reactions performed in polypropylene 384-well plate. Each was a final volume of 0.02 mL. The assay plates were incubated at room temperature with shaking for 1 hour and the affinity beads were washed with wash buffer (1×PBS, 0.05% Tween 20). The beads were then re-suspended in elution buffer (1×PBS, 0.05% Tween 20, 0.5 μM nonbiotinylated affinity ligand) and incubated at room temperature with shaking for 30 minutes. The kinase concentration in the eluates was measured by qPCR.

BTK = BTK (Homo sapiens (Human), UniProt Q06187); assay: KdELECT assay for binding affinity to BTK
Chain of BTK (Q06187 whole entry, the tested form may be a part): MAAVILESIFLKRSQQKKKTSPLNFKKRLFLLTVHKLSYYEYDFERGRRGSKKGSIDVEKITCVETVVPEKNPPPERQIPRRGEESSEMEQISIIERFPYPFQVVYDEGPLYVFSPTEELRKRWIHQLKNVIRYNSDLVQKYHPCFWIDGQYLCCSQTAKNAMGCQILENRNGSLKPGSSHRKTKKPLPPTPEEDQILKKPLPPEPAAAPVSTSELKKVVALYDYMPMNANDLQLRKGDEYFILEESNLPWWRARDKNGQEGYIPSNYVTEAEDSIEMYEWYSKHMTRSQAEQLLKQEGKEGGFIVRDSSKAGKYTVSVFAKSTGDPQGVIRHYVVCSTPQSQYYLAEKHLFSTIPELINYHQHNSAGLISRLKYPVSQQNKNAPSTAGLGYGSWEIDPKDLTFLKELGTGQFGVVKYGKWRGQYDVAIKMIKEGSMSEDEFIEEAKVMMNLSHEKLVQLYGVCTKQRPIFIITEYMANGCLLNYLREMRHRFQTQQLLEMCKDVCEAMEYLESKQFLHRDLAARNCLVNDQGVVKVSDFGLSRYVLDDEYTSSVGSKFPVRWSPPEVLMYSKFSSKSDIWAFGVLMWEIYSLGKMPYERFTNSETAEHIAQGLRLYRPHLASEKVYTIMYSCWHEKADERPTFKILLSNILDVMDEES
Method in brief: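 Competition binding of test compound against bead-immobilized biotinylated ligand; kinase as T7 phage fusion or HEK-293-expressed DNA-tagged protein. 11-point 3-fold dilution, 0.9% DMSO final, 1 h room temperature with shaking. Bound kinase eluted with 0.5 μM non-biotinylated ligand and quantified by qPCR; Kd derived.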

BRD4-BD1 = BRD4-BD1 (Homo sapiens (Human), UniProt O60885); assay: bromoKdELECT assay for binding affinity to BRD4-BD1
Experimental: (§2) Compounds were tested using a bromoKdELECT assay. T7 phage strains displaying bromodomains were grown in parallel in 24-well blocks in an E. coli host derived from the BL21 strain. E. coli were grown to log-phase and infected with T7 phage from a frozen stock (multiplicity of infection=0.4) and incubated with shaking at 32° C. until lysis (90-150 minutes). The lysates were centrifuged (5,000×g) and filtered (0.2 μm) to remove cell debris. Streptavidin-coated magnetic beads were treated with biotinylated small molecule or acetylated peptide ligands for 30 minutes at room temperature to generate affinity resins for bromodomain assays. The liganded beads were blocked with excess biotin and washed with blocking buffer (SeaBlock (Pierce), 1% BSA, 0.05% Tween 20, 1 mM DTT) to remove unbound ligand and to reduce nonspecific phage binding. Binding reactions were assembled by combining bromodomains, liganded affinity beads, and test compounds in 1×binding buffer (17% SeaBlock, 0.33×PBS, 0.04% Tween 20, 0.02% BSA, 0.004% Sodium azide, 7.4 mM DTT). Test compounds were prepared as 1000X stocks in 100% DMSO. Kds were determined using an 11-point 3-fold compound dilution series with one DMSO control point. All compounds for Kd measurements are distributed by acoustic transfer (non-contact dispensing) in 100% DMSO. The compounds were then diluted directly into the assays such that the final concentration of DMSO was 0.09%. All reactions performed in polypropylene 384-well plates. Each was a final volume of 0.02 ml. The assay plates were incubated at room temperature with shaking for 1 hour and the affinity beads were washed with wash buffer (1×PBS, 0.05% Tween 20). The beads were then resuspended in elution buffer (1×PBS, 0.05% Tween 20, 2 μM non-biotinylated affinity ligand) and incubated at room temperature with shaking for 30 minutes. The bromodomain concentration in the eluates was measured by qPCR.

BRD4-BD2 = BRD4-BD2 (Homo sapiens (Human), UniProt O60885); assay: bromoKdELECT assay for binding affinity to BRD4-BD2
Experimental: as §2

CDK1 = CDK1 (Homo sapiens (Human), UniProt P06493); assay: KdELECT assay for binding affinity to CDK1
Chain of CDK1 (P06493 whole entry): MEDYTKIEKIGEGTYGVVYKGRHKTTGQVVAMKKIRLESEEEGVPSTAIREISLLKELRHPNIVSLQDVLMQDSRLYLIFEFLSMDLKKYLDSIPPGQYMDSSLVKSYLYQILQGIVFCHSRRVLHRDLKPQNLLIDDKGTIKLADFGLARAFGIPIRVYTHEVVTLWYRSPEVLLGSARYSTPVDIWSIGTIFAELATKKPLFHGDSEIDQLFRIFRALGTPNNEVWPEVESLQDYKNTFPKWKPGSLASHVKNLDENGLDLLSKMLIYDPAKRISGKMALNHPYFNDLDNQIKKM
Experimental: as §1

| SMILES | pKd (mTOR) | pKd (BTK) | pKd (BRD4-BD1) | pKd (BRD4-BD2) | pKd (CDK1) |
| --- | --- | --- | --- | --- | --- |
| Nc1nc2cc(-c3nn(CCCCC(=O)NCCCCCCCC/C=C/C(=O)N4CCC[C@@H](n5nc(-c6ccc(Oc7ccccc7)cc6)c6c(N)ncnc65)C4)c4ncnc(N)c34)ccc2o1 [Compound I-2, 5-[4-amino-3-(2-amino-1,3-benzoxazol-5-yl)pyrazolo[3,4-d]pyrimidin-1-yl]-N—[(E)-11-[(3R)-3-[4-amino-3-(4-phenoxyphenyl)pyrazolo[3,4-d]pyrimidin-1-yl]-1-piperidyl]-11-oxo-undec-9-enyl]pentanamide] | 5.60 to 6.30 |  |  |  |  |
| C[C@@H]1COCCN1c1nc(N2CCOC[C@H]2C)c2ccc(-c3cccc(C(=O)NCCCCCCCCOc4ccc(C(=O)NC5C(C)(C)C(Oc6ccc(C#N)c(Cl)c6)C5(C)C)cc4)c3)nc2n1 (stereo partly drawn) [Compound I-8, 3-[2,4-bis[(3R)-3-methylmorpholin-4-yl]pyrido[2,3-d]pyrimidin-7-yl]-N-[8-[4-[[3-(3-chloro-4-cyano-phenoxy)-2,2,4,4-tetramethyl-cyclobutyl]carbamoyl]phenoxy]octyl]benzamide] | < 5.60 | 6.30 to 7.30 |  |  |  |
| C[C@@H]1COCCN1c1nc(N2CCOC[C@H]2C)c2ccc(-c3cccc(C(=O)NCCOCCOCCOCCOCCOCCOCCOCCOCCOc4ccc(C(=O)N[C@H]5C(C)(C)[C@H](Oc6ccc(C#N)c(Cl)c6)C5(C)C)cc4)c3)nc2n1 [Compound I-9, N-[2-[2-[2-[2-[2-[2-[2-[2-[2-[4-[[3-(3-chloro-4-cyano-phenoxy)-2,2,4,4-tetramethyl-cyclobutyl]carbamoyl]phenoxy]ethoxy]ethoxy]ethoxy]ethoxy]ethoxy]ethoxy]ethoxy]ethoxy]ethyl]-3-[2-[(3R)-3-methylmorpholin-4-yl]-4-(3-methylmorpholin-4-yl)pyrido[2,3-d]pyrimidin-7-yl]benzamide] | > 7.30 |  |  |  |  |
| Cc1sc2c(c1C)C(c1ccc(Cl)cc1)=N[C@@H](CC(=O)NCCOCCOC/C=C/C(=O)N1CCC[C@@H](n3nc(-c4ccc(Oc5ccccc5)cc4)c4c(N)ncnc43)C1)c1nnc(C)n1-2 [Compound I-24, N-[2-[2-[(E)-4-[(3R)-3-[4-amino-3-(4-phenoxyphenyl)pyrazolo[3,4-d]pyrimidin-1-yl]-1-piperidyl]-4-oxo-but-2-enoxy]ethoxy]ethyl]-2-[(9S)-7-(4-chlorophenyl)-4,5,13-trimethyl-3-thia-1,8,11,12-tetrazatricyclo[8.3.0.02.6]trideca-2 (6),4,7,10,12-pentaen-9-yl]acetamide] |  | > 7.30 | 6.30 to 7.30 | > 7.30 |  |
| Cc1sc2c(c1C)C(c1ccc(Cl)cc1)=N[C@@H](CC(=O)NCCOCCOCCOCCOCCOCCOC/C=C/C(=O)N1CCC[C@@H](n3nc(-c4ccc(Oc5ccccc5)cc4)c4c(N)ncnc43)C1)c1nnc(C)n1-2 [Compound I-26, N-[2-[2-[2-[2-[2-[2-[(E)-4-[(3R)-3-[4-amino-3-(4-phenoxyphenyl)pyrazolo[3,4-d]pyrimidin-1-yl]-1-piperidyl]-4-oxo-but-2-enoxy]ethoxy]ethoxy]ethoxy]ethoxy]ethoxy]ethyl]-2-[(9S)-7-(4-chlorophenyl)-4,5, 13-trimethyl-3-thia-1,8, 11,12-tetrazatricyclo[8.3.0.0^2,6]trideca-2 (6),4,7,10, 12-pentaen-9-yl]acetamide] |  | > 7.30 | 6.30 to 7.30 | > 7.30 |  |
| Cc1sc2c(c1C)C(c1ccc(Cl)cc1)=N[C@@H](CC(=O)NCCCCCCCC/C=C/C(=O)N1CCC[C@@H](n3nc(-c4ccc(Oc5ccccc5)cc4)c4c(N)ncnc43)C1)c1nnc(C)n1-2 [Compound I-28, N—[(E)-11-[(3R)-3-[4-amino-3-(4-phenoxyphenyl)pyrazolo[3,4-d]pyrimidin-1-yl]-1-piperidyl]-11-oxo-undec-9-enyl]-2-[(9S)-7-(4-chlorophenyl)-4,5,13-trimethyl-3-thia-1,8,11,12-tetrazatricyclo[8.3.0.0^2,6]trideca-2 (6),4,7,10,12-pentaen-9-yl]acetamide] |  | 5.60 to 6.30 | < 5.60 | 5.60 to 6.30 |  |
| Cc1sc2c(c1C)C(c1ccc(Cl)cc1)=N[C@@H](CC(=O)NCCCN1CCN(CCCN(C)C/C=C/C(=O)N3CCC[C@@H](n4nc(-c5ccc(Oc6ccccc6)cc5)c5c(N)ncnc54)C3)CC1)c1nnc(C)n1-2 [Compound I-29, N-[3-[4-[3-[[(E)-4-[(3R)-3-[4-amino-3-(4-phenoxyphenyl)pyrazolo[3,4-d]pyrimidin-1-yl]-1-piperidyl]-4-oxo-but-2-enyl]-methyl-amino]propyl]piperazin-1-yl]propyl]-2-[(9S)-7-(4-chlorophenyl)-4,5, 13-trimethyl-3-thia-1,8, 11,12-tetrazatricyclo[8.3.0.0^2,6]trideca-2 (6),4,7,10,12-pentaen-9-yl]acetamide] |  | > 7.30 | > 7.30 | > 7.30 |  |
| Cc1sc2c(c1C)C(c1ccc(Cl)cc1)=N[C@@H](CC(=O)NCCOCCOCCOc1ccc(C(=O)NC3C(C)(C)C(Oc4ccc(C#N)c(Cl)c4)C3(C)C)cc1)c1nnc(C)n1-2 (some centres unmarked) [Compound I-32] |  |  | 5.60 to 6.30 | 6.30 to 7.30 |  |
| CCc1cnn2c(NCc3ccc(OCCOCCOCCOCCOCCOCCOCCOCCOCCOC/C=C/C(=O)N4CCC[C@@H](n5nc(-c6ccc(Oc7ccccc7)cc6)c6c(N)ncnc65)C4)nc3)cc(N3CCCC[C@H]3CCO)nc12 [Compound I-47] |  |  |  |  | < 5.60 |

Other lines, results leading:

| pKd (mTOR) | pKd (BTK) | pKd (BRD4-BD1) | pKd (BRD4-BD2) | pKd (CDK1) | SMILES |
| --- | --- | --- | --- | --- | --- |
| 6.30 to 7.30 | 6.30 to 7.30 |  |  |  | C[C@@H]1COCCN1c1nc(N2CCOC[C@H]2C)c2ccc(-c3cccc(C(=O)NCCOCCOCCOCCOC/C=C/C(=O)N4CCC[C@@H](n5nc(-c6ccc(Oc7ccccc7)cc6)c6c(N)ncnc65)C4)c3)nc2n1 [Compound I-3, N-[2-[2-[2-[2-[(E)-4-[(3R)-3-[4-amino-3-(4-phenoxyphenyl)pyrazolo[3,4-d]pyrimidin-1-yl]-1-piperidyl]-4-oxo-but-2-enoxy]ethoxy]ethoxy]ethoxy]ethyl]-3-[2,4-bis[(3R)-3-methylmorpholin-4-yl]pyrido[2,3-d]pyrimidin-7-yl]benzamide] |
| 6.30 to 7.30 | > 7.30 |  |  |  | C[C@@H]1COCCN1c1nc(N2CCOC[C@H]2C)c2ccc(-c3cccc(C(=O)NCCOCCOCCOCCOCCOCCOCCOCCOC/C=C/C(=O)N4CCC[C@@H](n5nc(-c6ccc(Oc7ccccc7)cc6)c6c(N)ncnc65)C4)c3)nc2n1 [Compound I-5, N-[2-[2-[2-[2-[2-[2-[2-[2-[(E)-4-[(3R)-3-[4-amino-3-(4-phenoxyphenyl)pyrazolo[3,4-d]pyrimidin-1-yl]-1-piperidyl]-4-oxo-but-2-enoxy]ethoxy]ethoxy]ethoxy]ethoxy]ethoxy]ethoxy]ethoxy]ethyl]-3-[2,4-bis[(3R)-3-methylmorpholin-4-yl]pyrido[2,3-d]pyrimidin-7-yl]benzamide] |
| 6.30 to 7.30 | 6.30 to 7.30 |  |  |  | C[C@@H]1COCCN1c1nc(N2CCOC[C@H]2C)c2ccc(-c3cccc(C(=O)NCCCCCCCC/C=C/C(=O)N4CCC[C@@H](n5nc(-c6ccc(Oc7ccccc7)cc6)c6c(N)ncnc65)C4)c3)nc2n1 [Compound I-7, N—[(E)-11-[(3R)-3-[4-amino-3-(4-phenoxyphenyl)pyrazolo[3,4-d]pyrimidin-1-yl]-1-piperidyl]-11-oxo-undec-9-enyl]-3-[2,4-bis[(3R)-3-methylmorpholin-4-yl]pyrido[2,3-d]pyrimidin-7-yl]benzamide] |
| 6.30 to 7.30 |  |  |  |  | C[C@@H]1COCCN1c1nc(N2CCOC[C@H]2C)c2ccc(-c3cccc(C(=O)NCCOCCOCCOCCOCCOc4ccc(C(=O)NC5C(C)(C)C(Oc6ccc(C#N)c(Cl)c6)C5(C)C)cc4)c3)nc2n1 (some centres unmarked) [Compound I-10] |
